pEC50: −log10 of the molar value. Like-named read-outs stand apart in the source and are kept apart here. Starred links: 1 amine or outer side, 2 acyl side, 3 side chain; linkers in the order of their positions; H or OH if unused. Non-standard residues stand in square brackets, D forms with d. Residues, ends and D or L forms follow the SMILES beside them. *: point of attachment. dBip = N[C@H](Cc1ccc(-c2ccccc2)cc1)C(=O)O; Oic = O=C(O)[C@@H]1C[C@@H]2CCCC[C@@H]2N1; Phe(4-Cl) = N[C@@H](Cc1ccc(Cl)cc1)C(=O)O; Phe(4-I) = N[C@@H](Cc1ccc(I)cc1)C(=O)O; γGlu = O=C(O)[C@H](CCC(=O)[*:2])N[*:1]; d(β3hF) = N[C@@H](CC(=O)O)Cc1ccccc1; NMeR = CN[C@@H](CCCNC(=N)N)C(=O)O; Palmitoyl = CCCCCCCCCCCCCCCC(=O)*; Tridecanoyl = CCCCCCCCCCCCC(=O)*; hArg = N=C(N)NCCCC[C@H](N)C(=O)O; β3hF = N[C@H](CC(=O)O)Cc1ccccc1; Cha = N[C@@H](CC1CCCCC1)C(=O)O; NMeL = CN[C@@H](CC(C)C)C(=O)O; αMeL = CC(C)C[C@](C)(N)C(=O)O; αMeP = C[C@@]1(C(=O)O)CCCN1; Nle = CCCC[C@H](N)C(=O)O; 3TP = not defined here; AEEA = NCCOCCOCC(=O)O
Experiments:
rat APJ receptor = target: T1, rat APJ receptor (Rattus norvegicus, UniProt Q9JHG3); experiment: [35S] GTPγS assay, rat APJ receptor; assay type: biochemical
T1 construct: expressed in transfected cells
T1 sequence (Q9JHG3 1-377): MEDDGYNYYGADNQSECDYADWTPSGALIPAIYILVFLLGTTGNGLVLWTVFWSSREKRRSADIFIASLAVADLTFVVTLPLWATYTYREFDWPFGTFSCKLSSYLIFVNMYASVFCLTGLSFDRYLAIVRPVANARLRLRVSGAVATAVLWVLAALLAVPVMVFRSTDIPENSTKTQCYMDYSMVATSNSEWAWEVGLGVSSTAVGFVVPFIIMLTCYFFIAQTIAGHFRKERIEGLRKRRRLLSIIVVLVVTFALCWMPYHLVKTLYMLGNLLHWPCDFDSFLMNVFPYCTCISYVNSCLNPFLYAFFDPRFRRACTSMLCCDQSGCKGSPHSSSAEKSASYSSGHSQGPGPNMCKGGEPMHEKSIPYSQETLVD
Protocol: The membranes were incubated with modified peptides in the assay buffer. […] Bound [^35S] GTPγS was separated from free radiolabel by filtration. The filter bound radioactivity was determined by liquid scintillation counting.

[1] = In vivo pharmacokinetics in rat; design: species or system Sprague-Dawley rats; conditions: for AUC(0-inf) / half-life: rat, in vivo, sc, 0.5 mg/kg
Protocol: Evaluation of the in vivo pharmacokinetic profile of several pegylated and lipidated apelin polypeptides in rat was undertaken (FIGS. 9 and 10A-B). The apelin polypeptides were administered to Sprague-Dawley rats through subcutaneous (SC) administration and the pharmacokinetic profile for each polypeptide was subsequently evaluated. […] Blood samples collected over a 24 hr period were transferred into collection tubes containing potassium EDTA and stored on ice until processed. Plasma was obtained from blood by centrifugation. After transfer into a 96-well container, plasma samples were stored in a freezer maintained at approximately −80° C. Quantitative analysis of the apelin polypeptide in rat plasma samples was achieved using multiple reaction monitor (MRM) mode on a LC-MS/MS system.

[2] = In vitro stability in rat plasma; assay type: in vitro ADME
Outline: (§1)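 Peptide 5 μM final; rat plasma / liver homog. / kidney homog.; 37° C., 4 hr. Quench MeOH + IS, vortex 15 min RT, spin 5500 g 15 min; supernatant by HR LC-MS.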

[3] = In vitro stability in rat liver homogenate; assay type: in vitro ADME; conditions: tissue homogenate
Outline: as §1

[4] = In vitro stability in rat kidney homogenate; assay type: in vitro ADME; conditions: rat, tissue homogenate
Outline: as §1

human APJ receptor = target: T2, human APJ receptor (Homo sapiens, UniProt P35414); experiment: [35S] GTPγS assay, human APJ receptor; assay type: biochemical; conditions: human APJ receptor
T2 construct: expressed in transfected cells
T2 sequence (P35414 1-380): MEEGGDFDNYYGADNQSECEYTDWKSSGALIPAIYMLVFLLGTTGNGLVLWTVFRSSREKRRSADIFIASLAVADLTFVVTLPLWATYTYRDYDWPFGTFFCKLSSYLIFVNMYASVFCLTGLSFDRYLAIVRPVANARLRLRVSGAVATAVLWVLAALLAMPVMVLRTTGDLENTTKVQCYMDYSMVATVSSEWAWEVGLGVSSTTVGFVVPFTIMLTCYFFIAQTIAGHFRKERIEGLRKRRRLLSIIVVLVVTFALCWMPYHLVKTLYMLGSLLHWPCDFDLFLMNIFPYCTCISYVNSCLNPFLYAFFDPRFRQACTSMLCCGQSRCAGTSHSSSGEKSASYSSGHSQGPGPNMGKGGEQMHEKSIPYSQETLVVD

rat plasma = conditions: 37° C., up to 4 hr

| Compound | remaining at 4 h, 5 μM [2] [%] | remaining at 4 h, 5 μM [3] [%] | remaining at 4 h, 5 μM [4] [%] | not cleaved (rat plasma) [% remaining at 4 hours] | further results |
| --- | --- | --- | --- | --- | --- |
| CCCCCCCCCCCCC(=O)N[C@@H](CCC(=O)NCCOCCOCC(=O)NCCOCCOCC(=O)N[C@@H](CCC(N)=O)C(=O)N[C@@H](CCCNC(=N)N)C(=O)N1CCC[C@H]1C(=O)N(C)[C@@H](CCCNC(=N)N)C(=O)N[C@@H](CC1CCCCC1)C(=O)N[C@@H](CO)C(=O)N[C@@H](Cc1c[nH]cn1)C(=O)N[C@@H](CCCCN)C(=O)NCC(=O)N1[C@H](C(=O)N[C@@H](CCCC)C(=O)N2CCC[C@H]2C(=O)N[C@H](CC(=O)O)Cc2ccccc2)C[C@@H]2CCCC[C@@H]21)C(=O)O [compound 379] ({Tridecanoyl-γGlu-AEEA-AEEA}-QRP[NMeR][Cha]SHKG[Oic][Nle]P[β3hF]-OH) | 92 | 2 | 1 | – | pEC50 (rat APJ receptor; Table 16, read-out: EC50 Rat APJ Receptor): 8.08; AUC(0-inf) [1]: 0.052 µM·h; half-life [1]: 2.27 h |
| CCCCCCCCCCCCCCCC(=O)N[C@@H](CCC(=O)NCCOCCOCC(=O)NCCOCCOCC(=O)N[C@H](CCC(N)=O)C(=O)N[C@@H](CCCCNC(=N)N)C(=O)N1CCC[C@H]1C(=O)N[C@H](CCCNC(=N)N)C(=O)N[C@@H](CC1CCCCC1)C(=O)N[C@@H](CO)C(=O)N[C@@H](Cc1c[nH]cn1)C(=O)N[C@@H](CCCCN)C(=O)NCC(=O)N1[C@H](C(=O)N[C@@H](CCCC)C(=O)N2CCC[C@H]2C(=O)N[C@@H](CC(=O)O)Cc2ccccc2)C[C@@H]2CCCC[C@@H]21)C(=O)O [compound 614] ({Palmitoyl-γGlu-AEEA-AEEA}-[dQ][hArg]P[dR][Cha]SHKG[Oic][Nle]P[d(β3hF)]-OH) | 90 | 11 | 9 | – | pEC50 (human APJ receptor): 8.90; pEC50 (rat APJ receptor; rat APJ receptor, read-out: EC50 Rat APJ Receptor): 7.99 |
| {H2}[3TP](20K-mPEGReg)[hArg]rQ[hArg]Pr[NMeLeu]SHKG[Oic][pI-Phe]P[D-Bip]{COOH} ({20K‑mPEGReg-3TP}-[hArg][dR]Q[hArg]P[dR][NMeL]SHKG[Oic][Phe(4-I)]P[dBip]-OH; reading uncertain) [SEQ ID NO: 103] | – | – | – | – | plasma concentration in rat ([1]; 20 kDa PEGylated peptides, FIG. 9, 1/10th the dose of the others): high plasma concentrations |
| {Acetyl-NH} E r Q [hArg] P r [NMeLeu] S H K G [Oic] [pI-Phe] P [D-Bip] {COOH} | – | – | – | >90.0 | – |
| {Palm} [AC4Abu] [Aeea] [Aeea] q R P [NMeArg] [Cha] S H K G [Oic] [Nle] [Aib] [D-BhPhe] {COOH} | – | – | – | >90.0 | – |
| CCCCCCCCCCCCC(=O)N[C@@H](CCC(=O)NCCOCCOCC(=O)NCCOCCOCC(=O)N[C@@H](CCC(N)=O)C(=O)N[C@@H](CCCNC(=N)N)C(=O)N1CCC[C@H]1C(=O)N(C)[C@@H](CCCNC(=N)N)C(=O)N[C@@](C)(CC(C)C)C(=O)N[C@@H](CO)C(=O)N[C@@H](Cc1c[nH]cn1)C(=O)N[C@@H](CCCCN)C(=O)NCC(=O)N1[C@H](C(=O)N[C@@H](CCCC)C(=O)N2CCC[C@@]2(C)C(=O)N[C@@H](Cc2ccc(Cl)cc2)C(=O)O)C[C@@H]2CCCC[C@@H]21)C(=O)O [compound 376] ({Tridecanoyl-γGlu-AEEA-AEEA}-QRP[NMeR][αMeL]SHKG[Oic][Nle][αMeP][Phe(4-Cl)]-OH) | 83 | 10 | 13 | – | AUC(0-inf) ([1]; Sprague-Dawley): 0.09 µM·h; half-life ([1]; Sprague-Dawley): 1.48 h |

Further lines, with some results ahead:

| remaining at 4 h, 5 μM [2] [%] | remaining at 4 h, 5 μM [3] [%] | remaining at 4 h, 5 μM [4] [%] | not cleaved (rat plasma) [% remaining at 4 hours] | Compound | further results |
| --- | --- | --- | --- | --- | --- |
| – | – | – | >90.0 | {TDA}[AC4Abu][Aeea][Aeea][hArg]rQ[hArg]Pr[NMeLeu]SHKG[Oic][pI-Phe]P[D-Bip]{COOH} | – |
| – | – | – | >90.0 | {Palm} [AC4Abu] [Aeea] [Aeea] q R P [NMeArg] [Cha] S H K G [Oic] [Nle] [BhPro] [D-BhPhe] {COOH} | – |
| – | – | – | >90.0 | {PDA}[AC4Abu][Aeea][Aeea][hArg]rQ[hArg]Pr[NMeLeu]SHKG[Oic][pI-Phe]P[D-Bip]{COOH} | – |
| – | – | – | >90.0 | {Palm} [AC4Abu] [Aeea] [Aeea] q R P [NMeArg] [Cha] S H K G [Oic] [Nle] [Inp] [4-Cl-F] {COOH} | – |
